The source of these data is ChEMBL document CHEMBL1201862, “PubChem BioAssay data set” (2004).

Among the test systems are A498; A549; BT-549; HCC 2998; HCT-116; HCT-15; HT-29; Hs-578T; KM12; M14; MDA-N; NCI-H522; PC-3; SW-620; EKVX; NCI-H460; OVCAR-3; OVCAR-8; SF-295; UACC-62.
Common to all, as to assay: growth of human tumour cells (NCI), 48 h

Molecules are shown by their SMILES.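 Dose response: 5 concentrations. Exposure: 48 h. Format: 96-well plates. Endpoint: linear interpolation; highest concentration if not reached. Abbreviation: GI50, concentration required for 50% inhibition of growth.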 Active and inactive are the calls of the source. No stated cut-off is given here; in the data, active = GI50 up to about 1.1 µM and inactive = higher.

`CN1CCN(c2ccc3[nH]c(-c4ccc5[nH]c(-c6ccc(O)cc6)nc5c4)nc3c2)CC1`: the GI50 is 241 µM (inactive) in the test on A498; 332 µM (inactive) in the test on A549; 455 µM (inactive) in the test with BT-549; 151 µM (inactive) in the test with HCC 2998; 13.5 µM (inactive) with HCT-116; 224 µM in the test with HCT-15. Moreover, the GI50 in the test on HT-29 is 92.7 µM (inactive); in the test on Hs-578T, > 100 µM (inactive); in the test with KM12, 242 µM (inactive); with M14 it was 149 µM (inactive); with MDA-N, 22.9 µM (inactive); in the test on NCI-H522, 9.82 µM (inactive). The GI50 with PC-3 was 687 µM (inactive); in the test on SW-620, 102 µM (inactive).
In the case of `C=C1C(=O)OC2C1CCC(C)C1C=CC(=O)C12C` (centres undefined), the GI50 was 12.1 µM (inactive) in the test on A498; 7.76 µM (inactive) with A549; 1.63 µM (inactive) in the test on BT-549; 8.79 µM (inactive) in the test with EKVX; 12 µM (inactive) with HCC 2998; 1.74 µM (inactive) in the test with HCT-116. The GI50 in the test with HCT-15 was 1.82 µM; with HT-29, 2.02 µM (inactive); in the test on Hs-578T it was 2.56 µM (inactive); in the test with KM12 it was 2.16 µM (inactive); in the test on M14, 1.95 µM (inactive); with MDA-N, 1.77 µM (inactive). In addition, the GI50 was 4.84 µM (inactive) in the test on NCI-H460; 0.891 µM (active) with NCI-H522; 1.22 µM (inactive) in the test on OVCAR-3; 2.06 µM (inactive) in the test with OVCAR-8; 4.49 µM (inactive) with PC-3; 6.81 µM (inactive) in the test on SF-295. Moreover, the GI50 with SW-620 was 1.8 µM (inactive); with UACC-62 it was 1.79 µM (inactive).
As for `COc1ccccc1C1c2cc3c(cc2OC2(OC)COC(=O)C12)OCO3` (centres undefined), the GI50 in the test with A498 was 6.59 µM (inactive); with A549, 17.4 µM (inactive); in the test on BT-549 it was 17.9 µM (inactive); with EKVX, 24.7 µM (inactive); in the test on HCC 2998 it was 14.9 µM (inactive); in the test with HCT-116 it was 6.98 µM (inactive). The GI50 with HCT-15 was 5.33 µM; in the test on HT-29, 5.28 µM (inactive); in the test with Hs-578T, 5.83 µM (inactive); in the test with KM12 it was 4.92 µM (inactive); in the test with M14 it was 8.2 µM (inactive); in the test on MDA-N it was 2.24 µM (inactive). Besides, the GI50 with NCI-H460 was 15.3 µM (inactive); in the test on OVCAR-3, 9.57 µM (inactive); in the test with OVCAR-8 it was 24.3 µM (inactive); in the test on PC-3, 12 µM (inactive); with SF-295, 13.2 µM (inactive); in the test with SW-620, 6.7 µM (inactive). The GI50 with UACC-62 was 6.04 µM (inactive).
Regarding `CC1=C(\C=C/C(C)=C/C=C/C(C)=C/C=C/C=C(C)\C=C\C=C(C)/C=C/C2=C(C)CCCC2(C)C)C(C)(C)CCC1`, the GI50 in the test on A498 was > 100 µM (inactive); with A549, > 10 µM (inactive); in the test with BT-549, 64.4 µM (inactive); in the test on HCC 2998, > 100 µM (inactive); in the test with HCT-116 it was 22.1 µM (inactive); in the test on HCT-15, greater than 100 µM. For the same molecule, the GI50 was 56.4 µM (inactive) with HT-29; 88.9 µM (inactive) in the test with Hs-578T; 39.6 µM (inactive) in the test on KM12; > 100 µM (inactive) in the test on M14; 40 µM (inactive) in the test on MDA-N; > 100 µM (inactive) in the test with NCI-H460. Moreover, the GI50 in the test with NCI-H522 is 35.4 µM (inactive); in the test on OVCAR-3 it was > 100 µM (inactive); with OVCAR-8 it was > 100 µM (inactive); with PC-3 it was > 100 µM (inactive); in the test on SF-295, > 100 µM (inactive); with SW-620, > 100 µM (inactive). Moreover, the GI50 with UACC-62 was > 100 µM (inactive).
For the molecule `CC[C@@]1(O)C(=O)OCc2c1cc1n(c2=O)Cc2c-1nc1ccccc1c2/C=N\NC(=O)C(N)CS` (some centres undefined), the GI50 in the test on A498 was 2.55 µM (inactive); with A549, 2 µM (inactive); in the test on BT-549 it was 10.8 µM (inactive); in the test on EKVX, 47 µM (inactive); with HCC 2998 it was 9.46 µM (inactive); with HCT-116, 1.7 µM (inactive). The GI50 in the test on HCT-15 was 3.83 µM; in the test on HT-29, 9.29 µM (inactive); in the test on Hs-578T, > 100 µM (inactive); in the test on KM12 it was 24.8 µM (inactive); with M14 it was 0.665 µM (active); in the test on MDA-N, 9.4 µM (inactive). For the same molecule, the GI50 in the test on NCI-H460 is 0.363 µM (active); in the test on NCI-H522, 0.883 µM (active); with OVCAR-3, 13.2 µM (inactive); in the test with OVCAR-8, 1.09 µM (active); with PC-3, 3.52 µM (inactive); in the test on SF-295, 0.501 µM (active). Moreover, the GI50 with SW-620 was 1.37 µM (inactive); in the test with UACC-62 it was 0.0614 µM (active).
As for `CC(=O)Nc1cc(/C=C\C(=O)N2CC(CCl)c3c2cc(N)c2ccccc32)n(C)n1` (centres undefined), the GI50 is 0.00373 µM (active) with A498; 0.00614 µM (active) in the test on A549; 0.0199 µM (active) in the test with BT-549; 0.0251 µM (active) in the test with EKVX; 0.0148 µM (active) in the test on HCC 2998; 0.00149 µM (active) in the test on HCT-116. Besides, the GI50 in the test with HCT-15 was 0.0233 µM; in the test on Hs-578T it was 0.0543 µM (active); with KM12, 0.0167 µM (active); in the test with M14 it was 0.0115 µM (active); with MDA-N it was 0.0185 µM (active); with NCI-H460, < 0.001 µM (active). Besides, the GI50 in the test on OVCAR-3 is 0.0164 µM (active); with OVCAR-8 it was 0.00168 µM (active); in the test with PC-3 it was 0.0233 µM (active); in the test with SF-295, 0.0135 µM (active); with SW-620, 0.0123 µM (active); with UACC-62, 0.00423 µM (active).
In the case of `CC(=O)N(O)[C@@H]1CC[C@H](n2cnc3c(N)ncnc32)C1`, the GI50 with A498, in the test with A549, in the test on BT-549, with EKVX, with HCC 2998 and with HCT-116 was > 100 µM (inactive) in each case. Moreover, the GI50 in the test with HCT-15 is greater than 100 µM; in the test with Hs-578T, > 100 µM (inactive); in the test with KM12 it was > 100 µM (inactive); with M14, > 100 µM (inactive); with MDA-N, > 100 µM (inactive); with NCI-H460 it was > 100 µM (inactive). Moreover, the GI50 in the test with NCI-H522, with OVCAR-3, with OVCAR-8, in the test on PC-3, in the test on SF-295 and in the test with SW-620 was > 100 µM (inactive) in each case. The GI50 in the test on UACC-62 was > 100 µM (inactive).
With `CN(C)CCNC(=O)c1cccc(N(C)C(=O)c2ccccc2)c1[N+](=O)[O-]`, the GI50 is > 100 µM (inactive) in the test with A498; > 100 µM (inactive) in the test with A549; > 100 µM (inactive) in the test with BT-549; > 100 µM (inactive) with HCC 2998; > 100 µM (inactive) in the test with HCT-116; greater than 100 µM in the test with HCT-15. Moreover, the GI50 with HT-29, in the test with Hs-578T, with KM12, with M14, in the test on MDA-N and with NCI-H460 was > 100 µM (inactive) in each case. For the same molecule, the GI50 in the test with NCI-H522, in the test on OVCAR-3, with OVCAR-8, in the test on PC-3, with SF-295 and in the test on SW-620 was > 100 µM (inactive) in each case. In the test with UACC-62, the GI50 was > 100 µM (inactive).
`CC(C)(C)OC(=O)NC1CCCC1C(O)(C1=CCCC1)C1=CCCC1` (centres undefined): the GI50 is > 100 µM (inactive) in the test on A498; > 100 µM (inactive) with A549; > 100 µM (inactive) in the test with BT-549; > 100 µM (inactive) in the test with HCC 2998; > 100 µM (inactive) in the test with HCT-116; greater than 100 µM in the test on HCT-15. Further, the GI50 was 76.2 µM (inactive) in the test on HT-29; > 100 µM (inactive) with Hs-578T; > 100 µM (inactive) in the test on KM12; > 100 µM (inactive) with M14; > 100 µM (inactive) in the test on MDA-N; > 100 µM (inactive) with NCI-H460. Besides, the GI50 in the test with OVCAR-3 was > 100 µM (inactive); in the test with OVCAR-8, > 100 µM (inactive); in the test with PC-3, > 100 µM (inactive); with SW-620 it was > 100 µM (inactive); with UACC-62 it was 51.9 µM (inactive).
`CC1OC2/C=C\CC(O)C(C)(C)C3CCC(C)C4(O3)O[B-]35OC(C(=O)OC1C2)C1(OC(CCC1C)C(C)(C)C(O)C/C=C\C1CC(OC(=O)C4O3)C(C)O1)O5` (centres undefined): the GI50 in the test on A498 is 2.45 µM (inactive); with A549, 2.55 µM (inactive); in the test on BT-549, 2.54 µM (inactive); in the test on EKVX, 2.15 µM (inactive); in the test with HCC 2998 it was 1.66 µM (inactive); in the test with HCT-116 it was 2.01 µM (inactive). The GI50 in the test with HCT-15 is 5.37 µM; in the test on HT-29 it was 2.75 µM (inactive); with Hs-578T, 1.54 µM (inactive); with KM12, 3.07 µM (inactive); in the test with M14 it was 2.11 µM (inactive); with MDA-N, 3.15 µM (inactive). Besides, the GI50 with NCI-H460 is 1.6 µM (inactive); in the test on NCI-H522 it was 0.344 µM (active); with OVCAR-3, 1.89 µM (inactive); in the test with OVCAR-8, 3.13 µM (inactive); in the test on PC-3, 2.77 µM (inactive); in the test on SF-295 it was 1.8 µM (inactive). The GI50 in the test with SW-620 was 2.94 µM (inactive); with UACC-62 it was 2.01 µM (inactive).
For the molecule `COc1cc2c(cc1OC)-c1[nH]c3ccc([N+](=O)[O-])cc3c1CC(=O)N2`, the GI50 was 2.98 µM (inactive) in the test with A498; 2.46 µM (inactive) in the test with A549; 3.15 µM (inactive) with BT-549; 5.87 µM (inactive) with EKVX; 1.04 µM (active) in the test with HCC 2998; 0.472 µM (active) with HCT-116. For the same molecule, the GI50 with HCT-15 was 2.11 µM; with HT-29, 3.83 µM (inactive); in the test with Hs-578T it was 0.2 µM (active); in the test on KM12 it was 0.867 µM (active); in the test on M14 it was 5.38 µM (inactive); in the test with MDA-N, 4.48 µM (inactive). For the same molecule, the GI50 in the test on NCI-H460 is 1.95 µM (inactive); in the test on OVCAR-3, 0.726 µM (active); with OVCAR-8, 2.82 µM (inactive); in the test on PC-3, 3.29 µM (inactive); in the test with SF-295, 3.53 µM (inactive); in the test with SW-620 it was 0.849 µM (active). In addition, in the test on UACC-62, the GI50 was 5.4 µM (inactive).
